The values below come from patent US9999616B2 (ZENITH EPIGENETICS LTD., priority 2013, dated 2018).

Some results are limits rather than exact numbers.

One assay concerns Human AML MV-4-11 cells. The assay is described as follows: Inhibition of cell proliferation in MV4-11 cells (CellTiter Aqueous One). It counts as cell-based. The settings on record: MV4-11, 72 h. The procedure, abridged: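 MV4-11 cells, 5×10^4 per well in IMDM with 10% FBS, were exposed to increasing compound concentrations or 0.1% DMSO for 72 h at 37 °C in triplicate. Viability was read by MTS (CellTiter Aqueous One) absorbance at 490 nm after 3-4 h. IC50 was derived from background-corrected signal relative to DMSO.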

The subject of the next assay is hIL-17 mRNA. The assay is described as follows: Inhibition of hIL-17 mRNA transcription in OKT3-stimulated peripheral blood mononuclear cells. The assay is classed as cell-based. The conditions noted are these: human PBMC, OKT3 stimulation 6 h, read-out: IL-17 Activity. The procedure, abridged:
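Human PBMCs in IL-2 (20 ng/ml) medium preincubated 1 h with compound or 0.1% DMSO, then OKT3-stimulated for 6 h at 37 °C. hIL-17 mRNA quantified by one-step TaqMan qRT-PCR, normalized to an internal control, as fold induction relative to control.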

The test system of the next assay is MV4-11 cells. The assay is described as follows: In vivo efficacy in athymic nude mouse acute myeloid leukemia xenograft model using MV4-11 cells. The conditions noted are these: athymic nude mouse AML xenograft (MV4-11), oral dosing. The procedure: MV4-11 cells (ATCC) were grown under standard cell culture conditions and (NCr) nu/nu fisol strain of female mice age 6-7 weeks were injected with 5×10^6 cells/animal in 100 μL PBS+100 μL Matrigel in the lower left abdominal flank. By approximately day 18-21 after MV4-11 cells injection, mice were randomized based on tumor volume (L×W×H)/2) of average ˜100-300 mm^3. Mice were dosed orally with compound at 5 to 120 mg/kg b.i.d and/or q.d. on a continuous dosing schedule and at 2.5 to 85 mg/kg q.d. on a 5 day on 2 day off, 100 mg/kg q.d. on a 4 day on and 3 day off, 135 mg/kg q.d. on a 3 day on and 4 day off, 180 mg/kg on a 2 day on and 5 day off and 240 mg/kg on a 1 day on and 6 days off dosing schedules in EA006 formulation at 10 mL/kg body weight dose volume. Tumor measurements were taken with electronic micro calipers and body weights measured on alternate days beginning from dosing period. The average tumor volumes, percent Tumor Growth Inhibition (TGI) and % change in body weights were compared relative to Vehicle control animals. The means, statistical analysis and the comparison between groups were calculated using Student's t-test in Excel.

Another assay relates to MM1.s cells. The assay is described as follows: In vivo efficacy in multiple myeloma xenograft model using MM1.s cells. Further details: species or system mouse. The settings on record: mice, oral 25 to 90 mg/kg. Here is the method: MM1.s cells (ATCC) were grown under standard cell culture conditions and SCID-Beige strain of female mice age 6-7 weeks were injected with 10×10^6 cells/animal in 100 μL PBS+100 μL Matrigel in the lower left abdominal flank. By approximately day 21 after MM1.s cells injection, mice were randomized based on tumor volume (L×W×H)/2) of average 120 mm^3. Mice were dosed orally with compound at 25 to 90 mg/kg b.i.d and or q.d in EA006 formulation at 10 mL/kg body weight dose volume. Tumor measurements were taken with electronic micro calipers and body weights measured on alternate days beginning from dosing period. The average tumor volumes, percent Tumor Growth Inhibition (TGI) and % change in body weights were compared relative to Vehicle control animals. The means, statistical analysis and the comparison between groups were calculated using Student's t-test in Excel.

Assay [1] deals with Brd4 bromodomain 1 (BRD4(1)) (Homo sapiens, UniProt O60885). The assay is described as follows: Inhibition of tetra-acetylated histone H4 binding to Brd4 bromodomain 1, measured by FRET (HTRF). On the set-up: made in house; host or cells: E. coli BL21(DE3). The settings on record: 2 h at room temperature. The procedure, abridged:
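N-terminally His-tagged bromodomain (200 nM), expressed in E. coli and purified by Ni affinity and size exclusion, was incubated with biotinylated tetra-acetylated H4 peptide (25-50 nM), Eu-cryptate streptavidin and XL665 anti-His in HEPES pH 7.4 buffer with 0.2% DMSO. Reactions ran 2 h at room temperature. IC50 came from the 665/620 nm fluorescence decrease.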
On the technique in general: TR-FRET usually uses a lanthanide donor and a delayed reading to cut background.

For the compound `Cc1noc(C)c1-c1cc(-c2c(C)noc2C)c2nc[nH]c2c1` [Example Compound 1, 4,4′-(1H-benzo[d]imidazole-4,6-diyl)bis(3,5-dimethylisoxazole)], the IC50 with Human AML MV-4-11 cells was 0.3 to 3 µM; in the assay with hIL-17 mRNA, 0.3 to 3 µM; in assay [1] it was no more than 0.3 µM. The In vivo activity result with MV4-11 cells and in the assay with MM1.s cells was “Active” each time.
`Cc1nc2c(-c3c(C)noc3C)cc(-c3c(C)noc3C)cc2[nH]1` [Example Compound 6, 4,4′-(2-methyl-1H-benzo[d]imidazole-4,6-diyl)bis(3,5-dimethylisoxazole)]: the values for the IC50 (in the assay with Human AML MV-4-11 cells; in the assay with hIL-17 mRNA; in assay [1]) were 0.3 to 3 µM, no more than 0.3 µM and no more than 0.3 µM, respectively. The In vivo activity result with MV4-11 cells and with MM1.s cells was “Active” in each case.
Take `Cc1nc2c(-c3cccnc3C)cc(-c3c(C)noc3C)cc2[nH]1` [Example Compound 41, 3,5-dimethyl-4-(2-methyl-4-(2-methylpyridin-3-yl)-1H-benzo[d]imidazol-6-yl)isoxazole]: the IC50 in the assay on Human AML MV-4-11 cells is 0.3 to 3 µM; in the assay on hIL-17 mRNA, 0.3 to 3 µM; in assay [1], no more than 0.3 µM. Also, the In vivo activity result with MV4-11 cells and in the assay with MM1.s cells was “Active” each time.
As for `Cc1nc2c(-c3c(C)nn(C)c3C)cc(-c3c(C)noc3C)cc2[nH]1` [Example Compound 49, 3,5-dimethyl-4-(2-methyl-4-(1,3,5-trimethyl-1H-pyrazol-4-yl)-1H-benzo[d]imidazol-6-yl)isoxazole], the IC50 in the assay on Human AML MV-4-11 cells was 0.3 to 3 µM; in the assay with hIL-17 mRNA, no more than 0.3 µM; in assay [1], no more than 0.3 µM. Moreover, the In vivo activity result with MV4-11 cells is “Active”.
